Among the data in PubChem BioAssay (NCI) are TGI and GI50 values, retold here.

What all share (assay): NCI tumour cell line growth inhibition, 48 h
Experiment [1] concerns HCT-116 colon.
Experiment [2] has as its system SK-MEL-5 melanoma.
For experiment [3], the system named is SNB-75 CNS.
In experiment [4] the test system is K-562 leukemia.
Experiment [5] relates to UACC-62 melanoma.
Experiment [6] has as its system HCT-15 colon.
Experiment [7] concerns 786-0 renal.
The test system of experiment [8] is NCI/ADR-RES ovarian.
The test system of experiment [9] is DU-145 prostate.
For experiment [10], the system named is MDA-MB-231 breast.

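Step 1: Grow cells in 96-well plates. Step 2: Expose to compound for 48 hours at 5 concentrations. Step 3: Interpolate endpoints linearly; if unreached, use highest concentration. GI50: concentration for 50% inhibition of growth. Definition used: TGI = concentration required for complete inhibition of growth.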

Regarding `CCn1cc(C(=O)O)c(=O)c2cc(F)c(N3CCNCC3)nc21`, the TGI in experiment [1], in experiment [2], in experiment [3], in [4], in experiment [5] and in [6] was over 100 µM throughout. This compound also registered a TGI in experiment [7] of over 100 µM.
Regarding `CCOC(=O)/C(C#N)=C/c1[nH]c(C)c(C)c1C`, the TGI in [1], in experiment [2], in experiment [3], in experiment [4], in experiment [5] and in experiment [6] was over 100 µM in each case. The TGI in experiment [7] was over 100 µM.
As for `O=C1C2Cc3ccccc3CN2C(=O)N1CCN1CCOCC1` (stereo not drawn), the TGI in experiment [2], in [4], in experiment [5], in [6] and in experiment [7] was over 100 µM each time.
In the case of `O=C1CCC(=O)C12CCc1ccccc12`, the TGI in experiment [3], in experiment [5], in experiment [6] and in [7] was over 100 µM in each case.
With `CC1(C)OC(=O)C(c2ccsc2)C(=O)O1`, the TGI in [1], in experiment [2], in experiment [3], in [4], in experiment [5] and in experiment [6] was over 100 µM each time. Moreover, the TGI in [7] is over 100 µM.
Take `COC(=O)C1=CCS(=O)(=O)C1`: the TGI in experiment [1], in [2], in experiment [3], in experiment [4], in experiment [5] and in experiment [6] was over 100 µM throughout. Also, in [7], the TGI was over 100 µM.
With `OC1OC2COC(c3ccccc3)OC2C(O)C1O` (stereo not drawn), the TGI in experiment [1], in experiment [2], in [4], in experiment [5], in experiment [6] and in experiment [7] was over 100 µM in each case.
On to `Nc1nc(-c2ccccc2Cl)cc(-c2ccc(Cl)cc2Cl)n1`, for which the GI50 is 4.27 µM in experiment [1]; 4.78 µM in experiment [2]; 14.8 µM in [8]; 5.33 µM in experiment [9]; 3.97 µM in experiment [4]; 9.3 µM in experiment [10]. Also, the results for the GI50 in [5], in experiment [6] and in experiment [7] were 5.93 µM, 5.09 µM and 20.2 µM, respectively. The TGI in [1] was over 100 µM; in experiment [2], 20.8 µM; in [8], over 100 µM; in experiment [9] it was 70.1 µM; in [4], over 100 µM; in experiment [10], over 100 µM. The TGI in experiment [5] was 44.2 µM; in experiment [6], over 100 µM; in [7], over 100 µM.
For `Nc1c(-c2ccc(-c3c(N)[n+]([O-])c4ccccc4[n+]3[O-])cc2)[n+]([O-])c2ccccc2[n+]1[O-]`, the TGI in experiment [2] was 23.6 µM; in experiment [3], 21.9 µM; in experiment [4] it was over 100 µM; in [5], 24.3 µM; in experiment [6], 15.4 µM; in experiment [7], 26.9 µM.
Regarding `Fc1cccc(C2SCc3nc4ccccc4n32)c1` (stereo not drawn), the TGI in experiment [1] is over 100 µM; in experiment [2] it was 29.4 µM; in experiment [3], over 100 µM; in [4], over 100 µM; in [5], over 100 µM; in experiment [7], over 100 µM.
Turning to `O=C(NCCOCCO)c1ccc(O)cc1`, the TGI in [1], in [2], in experiment [4], in experiment [5], in [6] and in [7] was over 100 µM each time.
Take `O=c1cc(/C=C/c2ccccc2)c2ccc(O/C(=C\c3ccccc3)c3nc4ccccc4c(=O)o3)cc2o1`: the TGI was 36.5 µM in experiment [1]; 41 µM in experiment [2]; over 100 µM in [4]; over 100 µM in experiment [5]; over 100 µM in [6]; over 100 µM in [7].
As to `NCCCSCC(=O)O`, the TGI in [1], in experiment [2], in experiment [3], in experiment [4], in experiment [5] and in [6] was over 100 µM each time. For the same compound, the TGI in experiment [7] is over 100 µM.
As for `CC(=O)Oc1cc(OC(C)=O)c(OC(C)=O)c2c1CC1C(=O)C3(CCc4ccccc43)C(=O)C1C2` (stereo not drawn), the TGI is 16.7 µM in [3]; 28.1 µM in experiment [4]; 31.3 µM in [5]; 39.5 µM in experiment [6]; 26.4 µM in experiment [7].
Take `C=C1[C@@H]2CCC(C)(C)[C@H]1CCC(=O)[C@@H]2C(=O)OC`: the TGI in experiment [1], in [2], in experiment [4], in experiment [5], in experiment [6] and in experiment [7] was over 100 µM throughout.
For `CCN(CC)[C@@H]1c2cc3c(cc2C(c2cc(OC)c(O)c(OC)c2)C2C(=O)CO[C@@H]21)OCO3` (stereo partly drawn), the TGI in experiment [1], in experiment [2], in experiment [3], in experiment [4], in [5] and in experiment [6] was over 100 µM in each case. This compound also registered a TGI in experiment [7] of over 100 µM.
As for `O=C1OC(/C=C/c2ccccc2)C(=O)C1=O` (stereo not drawn), the TGI in experiment [3], in experiment [4], in [5], in [6] and in [7] was over 100 µM each time.
With `OC1/C(=C/c2ccccc2)CNC/C1=C\c1ccccc1` (stereo not drawn), the TGI in [1], in experiment [2], in experiment [3], in [5], in experiment [6] and in [7] was over 100 µM throughout.
Take `CC(=O)c1ccc(-c2ccc(C(C)=O)s2)s1`: the TGI in experiment [1], in experiment [2], in [3], in experiment [4], in experiment [5] and in [6] was over 100 µM each time. This compound had a TGI in experiment [7] of over 100 µM.
